# Data taken from US10184118B2, “Cytochrome P450S and uses thereof” (University of Kentucky Research Foundation, priority 2001, dated 2019).
# Read-outs that look alike come from different tables or passages of the source.
# Tests used:
# [1] = test system: CYP71D20; conditions: 20 to 50 μM substrate, 2 mM NADPH, 1 mg/mL microsomal protein, 30° C.
# Protocol: Reactions were carried out in 100 mM Tris-HCl, pH 7.5, to which microsomal protein was added to a final concentration of 1 mg/mL. Reactions were initiated by the addition of 2 mM NADPH. […] After incubations for variable lengths of time at 30° C., the reactions were extracted with two volumes of ethyl acetate. […] GC analysis was routinely performed with an HP5890 GC equipped with a Hewlett-Packard HP-5 capillary column (30 m×0.25 mm, 0.25 μm phase thickness) and FID as described previously (Rising et al., J. Am. Chem. Soc. 122:1861-1866, 2000). GC-MS analysis was performed at the University of Kentucky Mass Spectrometry Facility using a Varian 3400 gas chromatograph and a Finnigan INCOS 50 quadrupole mass selective detector. The GC was equipped with a J&W DB-5 ms capillary column (15 m×0.25 mm, 0.25 μm phase thickness) and run with He as the carrier gas (10 psi.). Splitless injections were done at an injection port temperature of 280° C. The column temperature was maintained at 40° C. for 1 minute and then increased to 280° C. at 10° C. per minute. Following separation by the GC column, samples were introduced directly into the electron impact ionization source. Mass spectra were acquired at 70 eV, scanning from 40-440 Da in 1 second.
# [2] = test system: 3-hydroxylase (5-epi-aristolochene to 1-deoxycapsidiol); conditions: cited from earlier work
# [3] = test system: induction of EAS in elicitor-treated cell cultures; assay: Inducible sesquiterpene cyclase (EAS) activity in extracts of elicitor-treated cells; format: cell-based, Nicotiana tabacum; conditions: 12 h with cellulase
# [4] = target: T1, 5-epi-aristolochene synthase (EAS) (Nicotiana tabacum, UniProt Q40577); assay: In vitro activity of purified recombinant EAS with inhibitors; format: biochemical
# T1 construct: made in house
# T1 sequence (Q40577 1-548): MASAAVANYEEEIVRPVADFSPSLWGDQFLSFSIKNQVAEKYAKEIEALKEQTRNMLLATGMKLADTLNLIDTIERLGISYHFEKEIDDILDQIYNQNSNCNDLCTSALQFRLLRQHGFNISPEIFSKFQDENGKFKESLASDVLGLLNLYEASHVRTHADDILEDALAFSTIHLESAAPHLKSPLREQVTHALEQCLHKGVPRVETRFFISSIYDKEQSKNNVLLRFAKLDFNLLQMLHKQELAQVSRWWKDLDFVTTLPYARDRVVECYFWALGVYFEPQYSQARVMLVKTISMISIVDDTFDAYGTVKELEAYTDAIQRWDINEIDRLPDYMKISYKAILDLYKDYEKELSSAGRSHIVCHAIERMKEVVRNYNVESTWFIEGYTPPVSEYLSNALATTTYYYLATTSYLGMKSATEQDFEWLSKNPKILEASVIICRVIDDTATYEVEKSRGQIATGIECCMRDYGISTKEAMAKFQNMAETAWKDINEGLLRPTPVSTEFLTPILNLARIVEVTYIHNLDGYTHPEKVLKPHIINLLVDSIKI
# Protocol: The in vitro activity of a purified EAS preparation (Back and Chappell, J. Biol. Chem. 270:7375-7381, 1995) was also measured at the indicated inhibitor concentrations as an additional test for non-specific effects of these inhibitors (circles).
# [5] = test system: 5-epi-aristolochene hydroxylase (5EAH)
# Protocol: (§1) The hexane solvent was removed under a gentle stream of N2 gas, and the dried residue was re-dissolved in acetone. […] Detection and quantification of capsidiol in the extracellular culture media was performed as reported previously (Chappell et al., Phytochemistry 26:2259-2260, 1987), and the amount of radioactivity incorporated into capsidiol was determined. For these determinations, samples were separated by TLC, and the zones corresponding to capsidiol were scraped from the plate for scintillation counting.
# (§2) Inhibition studies were performed by the addition of the P450 inhibitors ancymidol (Coolbaugh et al., Plant Physiol. 62:571-576, 1978; Hoshino et al., Phytochemistry 38:609-613, 1995) and ketoconazole (Hoshino et al., Phytochemistry 38:609-613, 1995; Rademacher, Annu. Rev. Plant Physiol. Plant Mol. Biol. 51:501-531, 2000) directly to the cell cultures or enzyme assay mix. […] After a further 3 hour incubation period, the cells and media were collected. The amount of radioactivity incorporated into extracellular capsidiol was determined as described above. To evaluate secondary effects of these inhibitors, the level of inducible sesquiterpene cyclase activity in the collected cells was determined according to Vogeli et al. (Plant Physiol. 93:182-187, 1990), as well as in vitro assays with purified recombinant EAS (Back et al., Arch. Biochem. Biophys. 315:527-532, 1994) incubated with the indicated concentrations of ancymidol and ketoconazole.
# [6] = test system: 5-epi-aristolochene hydroxylase (5EAH); assay: In vivo 5-epi-aristolochene hydroxylase assay in elicitor-treated tobacco cell suspension cultures; conditions: Nicotiana tabacum, read-out: inhibition of apparent activity of 5EAH
# Protocol: as §1, §2
# [7] = microsomes incubated with 5-epi-aristolochene
# [8] = concentrations as high as 100 μM
structure (smiles),measurement,setting,value
C=C(C)[C@@H]1CC=C2CC[C@@H](O)[C@@H](C)[C@@]2(C)C1 [1-deoxycapsidiol],"metabolism by CYP71D20 microsomes (GC, GC-MS of products)",[1],metabolized to only one product with the same retention time as capsidiol
[C-]#[O+] [carbon monoxide],effect on 1-deoxycapsidiol accumulation in vitro,[2]; [7],arrested
CC(=O)N1CCN(c2ccc(OCC3COC(Cn4ccnc4)(c4ccc(Cl)cc4Cl)O3)cc2)CC1 (stereo not shown) [ketoconazole],concentration at which inducibility of cyclase activity in elicitor-treated cell extracts was inhibited,[3],above 50 μM
same,effect on in vitro activity of EAS,[4]; indicated inhibitor concentrations (FIG. 3B),does not appear to affect
same,effect on 1-deoxycapsidiol accumulation in vitro,[2],arrested
same,inhibition,[5]; 25 µM,~50%
same,inhibition,[5]; 100 µM,95%
C=C(C)[C@@H]1CC=C2CCC[C@@H](C)[C@@]2(C)C1 [5-epi-aristolochene],"metabolism by CYP71D20 microsomes (GC, GC-MS of products)",[1],metabolized to only one product with the same retention time as capsidiol
COc1ccc(C(O)(c2cncnc2)C2CC2)cc1 (stereo not shown) [ancymidol],effect on induction of EAS in elicitor-treated cell cultures,[3]; [8],neither the in vitro activity of recombinant EAS nor the induction of EAS in the elicitor-treated cell cultures was significantly affected
same,effect on in vitro activity of recombinant EAS,[4]; [8],neither the in vitro activity of recombinant EAS nor the induction of EAS in the elicitor-treated cell cultures was significantly affected
same,effect on 1-deoxycapsidiol accumulation in vitro,[2]; [7],arrested
same,inhibition,[5]; 25 µM,~50%
same,inhibition at 75 µM,[6],> 80%
